Results on 2 compounds are retold here after patent US11833144B2, “Treating autoimmune disease” (Mayo Foundation for Medical Education and Research, priority 2020, dated 2023).

SMILES strings stand for the structures.

Holding throughout (format): cell-based, mouse
The test system of assay [1] is activated murine B cells. In words: Seahorse OCR / ECAR in activated murine B cells. As to the method: The bioenergetic activities of the OCR and ECAR were measured using a Seahorse XFe96 Extracellular Flux Analyzed following established protocols (Agilent). Briefly, B cells were seeded at 200,000 cells/well on Cell-Tak (Corning) coated XFe96 plate with fresh XF media (Seahorse XF RPMI medium containing 10 mM glucose, 2 mM L-glutamine, and 1 mM sodium pyruvate, PH 7.4; all reagents from Agilent). OCR was measured in the presence of Oligomycin (1.5 μM; Sigma-Aldrich), FCCP (1.5 μM; Sigma-Aldrich), and Rotenone (1 μM; Sigma-Aldrich)/Antimycin A (1 μM; Sigma-Aldrich) in Mito Stress assay. For ECAR measurement, B cells were seeded in XFe96 plate with fresh Seahorse XF RPMI medium with 2 mM L-glutamine (PH 7.4), and treated with glucose (10 mM; Agilent), Oligomycin (1.5 and 2-DG (50 mM; Sigma-Aldrich) orderly in Glycolysis Stress assay.

A further assay deals with Chop, Atf4, Sqstm1. Kind of assay: RT-PCR of ER stress-related genes in activated B cells. As to the method: For mRNA analysis, total mRNA was isolated from mouse and human B cells by RNeasy Micro kit (Qiagen), reverse transcribed from mRNA to cDNA for subsequent real-time PCR analysis. Scd1, Scd2, Fasn, Acaca, Chop, Atf4, Sqstm1 in mouse B cells and Scd, Fasn, Acaca expression in human B cells were measured by real-time PCR with a Bio-Rad Realtime PCR system. β-actin expression was used as control.

For assay [2], the system named is activated murine B cells. Kind of assay: TMRM staining of mitochondrial membrane potential in activated murine B cells. The note with it: 72 hours; for mitochondrial membrane potential (TMRM): substance alone. On the procedure: For analysis of surface markers, cells were stained in PBS containing 1% (w/v) bovine serum albumin on ice for 30 minutes, with anti-IgG1 (RMG1-1, Biolegend), anti-CD19 (ID3, Biolegend) anti-B220 (RA3-6B2, Biolegend), anti-CD4 (GK1.5, Biolegend), anti-CD8 (53-6.7, Biolegend), anti-CD25 (PC16, Biolegend), anti-GL7 (GL-7, Biolegend), anti-CD95 (Jo2, BD Biosciences), anti-CD138 (281-2, Biolegend), anti-IgD (11-26c.2a, Biolegend), anti-PD-1 (J43, ThermoFisher), anti-IgM (II/41, ThermoFisher). Antigen specific GC response was detected with tetramer NP-phycoerythrin conjugated with PE (Biosearch Technologies). CXCR5 was stained with biotinylated anti-CXCR5 (2G8) followed by staining with streptavidin-conjugated PE (both from BD Biosciences). Cell viability was assessed using the Fixable Dye Ghost 510 (Tonbo Bioscience) or Annexin V cell apoptosis kit with 7-AAD (ThermoFisher) following the manufacturer's protocol. Phosflow staining for phospho-S6 (S235/236) was performed using Phosflow Fix/Perm kit (BD Biosciences). Mitochondrial potential was measured by staining with 20 nM TMRM (ThermoFisher) following manufacturer's instructions. Flow cytometry was performed on the LSR II, LSR Fortessa (BD Biosciences) or Attune NxT (ThermoFisher) cytometers, and analysis was performed using FlowJo software (Tree Star).

Assay [3] concerns LC3-I/LC3-II, p-S6, p-S6K, AID. Kind of assay: Immunoblot of LC3-I/LC3-II, p-S6, p-S6K and AID in activated murine B cells. On the procedure:
For immunoblotting, cells were lysed in lysis buffer with protease and phosphatase inhibitors (Sigma-Aldrich). Protein concentration in samples were quantified by BCA assay (Thermo Fisher Scientific) before loading the samples for electrophoresis and membrane transfer. The transferred membrane was blocked with TBST (0.1% Tween 20) containing 5% BSA for 1 hour at room temperature. The membrane was incubated with primary antibodies overnight including anti-p-S6 (Ser235/Ser236, D57.2.2E; Cell Signaling), anti-p-p70 S6 kinase (Thr389, 108D2; Cell Signaling), anti-p-4E-BP1 (Thr37/46, 236B4; Cell Signaling), anti-LC3α/β (G-4; Santa Cruz); anti-p-ULK1 (Ser757, D706U; Cell Signaling), anti-AID (EK2 5G9; Cell Signaling), anti-β-actin (13E5; Sigma-Aldrich), and anti-SCD2 (H-12; Santa Cruz). Then, the membrane was washed and incubated with the corresponding secondary antibody for subsequent enhanced chemiluminescence (ECL; Thermo Fisher) exposure. The band intensity of all the immunoblot was analyzed by ImageJ software.

With `CNC(=O)c1ccnc(NC(=O)N2CCC(Oc3ccccc3Cl)CC2)c1` [SSI-4, 2-{[4-(2-Chlorophenoxy)piperidine-1-carbonyl]amino}-N-methylpyridine-4-carboxamide], in the assay on activated murine B cells [1] (SSI-4, 48 hours), the “B cell glycolysis (ECAR) under SCD inhibition” value is “strongly suppressed” and the “B cell respiration (OCR) under SCD inhibition” value is “strongly suppressed”. In addition, the “ER stress-related genes Chop, Atf4, Sqstm1” value in the assay with Chop, Atf4, Sqstm1 (SSI-4 treatment) is recorded as “increased”. Further, in the assay on activated murine B cells [2], the “mitochondrial membrane potential (TMRM)” value is recorded as “reduced mitochondrial membrane potential”. Further, the “levels of p-S6K and p-S6” value in assay [3] (SSI-4 treated B cells) is on record as “decreased”. In assay [3] (SSI-4 treated B cells vs control cells), the LC3-II/LC3-I ratio entry was “substantial increase”. Also, the “expression of activation-induced cytidine deaminase (AID)” value in assay [3] (SSI-4 treatment) was “Reduced expression”.

As to `CCCCCCCC/C=C\CCCCCCCC(=O)O` [OA, oleic acid], the “OA mediated increase of basal respiration with titrated doses” value in the assay with activated murine B cells [1] (exogenous OA 1, 10, 20 and 50) was “dose dependent”. In addition, the “glycolytic capacity of activated murine B cells” value with activated murine B cells [1] (exogenous fatty acid, 48 h, Glycolysis Stress test) was “increased the glycolytic capacity”. For the same compound, the “B cell respiration (OCR)” value in the assay on activated murine B cells [1] (exogenous fatty acid, 48 h, CpG/IL-4/IL-5 (PO: CpG and anti-IgM/anti-CD40) stimulation) was “enhanced B cell respiration”. The “ER stress-related gene upregulation with exogenous OA” value in the assay with Chop, Atf4, Sqstm1 (SSI-4 plus OA) is reported as “reduced these genes upregulation”. For the same compound, the “mitochondrial membrane potential (TMRM) under SCD inhibition with exogenous OA” value in the assay on activated murine B cells [2] (SSI-4 plus OA) was “corrected”. Further, in the assay with activated murine B cells [2], the “mitochondrial membrane potential (TMRM)” value is “able to increase mitochondrial membrane potential”. For the same compound, in assay [3] (SSI-4 treated or SCD1/2 deficient B cells plus OA), the “levels of p-S6K and p-S6 with exogenous OA” value was “restored”. The “increased LC3-II/LC3-I ratio with exogenous OA” value in assay [3] (SSI-4 treated or SCD deficient B cells plus OA) is “completely rescued”.
